Data from the supplement of paper PMC13380429.

What was measured:
Settings in all cases: 72 h
Caco-2 [1] = assay: relative viability EC50 (midpoint between 100% and the lowest measured viability); higher = less toxic
Vero E6 [2] = assay: as above
U2OS [3] = assay: as above
HepG2 [4] = assay: as above
Calu-3 [5] = assay: as above
Caco-2 [6] = assay: drug sensitivity score (DSS) for viability; higher = more toxic; extreme values may be limits of the assay
Vero E6 [7] = assay: as above
U2OS [8] = assay: as above
HepG2 [9] = assay: as above
Calu-3 [10] = assay: as above
Caco-2 [11] = assay: cell viability relative to DMSO; higher = less toxic
Vero E6 [12] = assay: as above
U2OS [13] = assay: as above
HepG2 [14] = assay: as above
Calu-3 [15] = assay: as above

Row | SMILES | relative viability EC50 (Caco-2 [1]) [µM] | relative viability EC50 (Vero E6 [2]) [µM] | relative viability EC50 (U2OS [3]) [µM] | relative viability EC50 (HepG2 [4]) [µM] | relative viability EC50 (Calu-3 [5]) [µM] | drug sensitivity score (Caco-2 [6]) | drug sensitivity score (Vero E6 [7]) | drug sensitivity score (U2OS [8]) | drug sensitivity score (HepG2 [9]) | drug sensitivity score (Calu-3 [10]) | cell viability (Caco-2 [11]; 1 nM) [%] | cell viability (Caco-2 [11]; 10 nM) [%] | cell viability (Caco-2 [11]; 100 nM) [%] | cell viability (Caco-2 [11]; 1000 nM) [%] | cell viability (Caco-2 [11]; 10000 nM) [%] | cell viability (Vero E6 [12]; 1 nM) [%] | cell viability (Vero E6 [12]; 10 nM) [%] | cell viability (Vero E6 [12]; 100 nM) [%] | cell viability (Vero E6 [12]; 1000 nM) [%] | cell viability (Vero E6 [12]; 10000 nM) [%] | cell viability (U2OS [13]; 1 nM) [%] | cell viability (U2OS [13]; 10 nM) [%] | cell viability (U2OS [13]; 100 nM) [%] | cell viability (U2OS [13]; 1000 nM) [%] | cell viability (U2OS [13]; 10000 nM) [%] | cell viability (HepG2 [14]; 1 nM) [%] | cell viability (HepG2 [14]; 10 nM) [%] | cell viability (HepG2 [14]; 100 nM) [%] | cell viability (HepG2 [14]; 1000 nM) [%] | cell viability (HepG2 [14]; 10000 nM) [%] | cell viability (Calu-3 [15]; 1 nM) [%] | cell viability (Calu-3 [15]; 10 nM) [%] | cell viability (Calu-3 [15]; 100 nM) [%] | cell viability (Calu-3 [15]; 1000 nM) [%] | cell viability (Calu-3 [15]; 10000 nM) [%]
1 | CC1(C)C(=O)N(c2ccc(C#N)c(C(F)(F)F)c2)C(=O)N1CCCCO | > 10 | > 10 | > 10 | > 10 | > 10 | 0.4 | 0 | 0 | 0 | 0 | 104 | 94.8 | 90.6 | 90.7 | 89.4 | 95.6 | 103 | 100 | 103 | 99.2 | 99.9 | 102 | 96.5 | 97.6 | 98.3 | 98.8 | 93.9 | 103 | 91.1 | 91.6 | 104 | 114 | 96 | 97.6 | 91.9
2 | CCCn1c(=O)c(C)cn2nc(N)nc12 | > 10 | > 10 | > 10 | > 10 | > 10 | 0 | 0 | 0 | 0 | 0 | 91.7 | 91.5 | 102 | 99.5 | 112 | 90.1 | 103 | 96 | 97.1 | 97.7 | 100 | 97.3 | 104 | 98.9 | 101 | 96.9 | 95 | 93.8 | 98.3 | 107 | 105 | 102 | 102 | 111 | 99
3 | NS(=O)(=O)NCCNc1nonc1/C(=N/O)Nc1ccc(F)c(Br)c1 | > 10 | > 10 | > 10 | > 10 | > 10 | 0 | 0 | 0 | 0 | 0 | 89.9 | 100 | 98 | 102 | 96.4 | 100 | 98.9 | 98.2 | 94.5 | 107 | 93.6 | 102 | 96.2 | 102 | 95 | 100 | 96 | 103 | 94.8 | 102 | 100 | 96.2 | 93.7 | 95 | 95.4
4 | O[C@@H]1[C@H](O)[C@@H](CCl)O[C@H]1n1cnc2c(NC3CC4CCC3C4)ncnc21 (mixture of isomers) [5'-chloro-5'-deoxy-ENBA-(+/-)] | > 10 | > 10 | > 10 | > 10 | > 10 | 0.4 | 0 | 0 | 0.2 | 0 | 98.8 | 99.6 | 99.2 | 97.2 | 86.1 | 96.7 | 97.2 | 94.3 | 91.9 | 91.5 | 104 | 100 | 99.3 | 104 | 97.6 | 96 | 99.6 | 96.2 | 99.5 | 85.4 | 99.1 | 98 | 93.3 | 94.8 | 90.2
5 | N[C@@H](Cc1ccc(Cl)cc1)C(=O)O (racemic) [fenclonine-(+/-)] | > 10 | > 10 | > 10 | > 10 | > 10 | 0 | 0 | 0 | 0 | 0 | 94 | 102 | 97.9 | 97.5 | 93.2 | 110 | 106 | 105 | 98.6 | 102 | 93.6 | 101 | 96.4 | 102 | 97.2 | 103 | 107 | 101 | 93.7 | 100 | 98.1 | 101 | 97.7 | 96.4 | 97.1
6 | O=C([O-])CN1CCN(CC(=O)[O-])CCN([C@H](CO)[C@H](O)CO)CCN(CC(=O)[O-])CC1.[Gd+3] (racemic) [gadobutrol] | > 10 | > 10 | > 10 | > 10 | > 10 | 0 | 0 | 0 | 0 | 0 | 107 | 96.2 | 95.5 | 98.8 | 104 | 100 | 105 | 96.8 | 99.4 | 107 | 99.6 | 113 | 100 | 104 | 106 | 97 | 99.2 | 101 | 91.8 | 100 | 96.2 | 104 | 109 | 109 | 98.4
7 | N[C@@H](C(=O)O)c1nn[nH]n1 (racemic) [tetrazol-5-yl-glycine-(RS)] | > 10 | > 10 | > 10 | > 10 | > 10 | 0 | 0 | 0 | 0 | 0.1 | 97.2 | 95.6 | 104 | 98 | 90.6 | 95 | 104 | 90.2 | 98.3 | 107 | 104 | 98.5 | 103 | 93.7 | 104 | 91 | 107 | 101 | 96.6 | 108 | 112 | 109 | 105 | 95.2 | 89.3
8 | O=C1Cc2c([nH]c3ccc(Br)cc23)-c2ncccc2N1 [1-azakenpaullone] | > 10 | > 10 | > 10 | > 10 | > 10 | 0 | 0 | 0 | 0 | 0 | 98.1 | 99.7 | 95.4 | 109 | 104 | 91.7 | 103 | 96.5 | 101 | 105 | 99.8 | 95.9 | 99.3 | 98.4 | 96.1 | 89.6 | 96.3 | 92.8 | 104 | 105 | 102 | 94.6 | 101 | 104 | 118
9 | COc1ccc2[nH]c(-c3ccccc3)c(CCNC(C)=O)c2c1 [2-phenylmelatonin] | > 10 | > 10 | > 10 | > 10 | > 10 | 0.6 | 0 | 0 | 0 | 0 | 98.8 | 105 | 93 | 98 | 82.6 | 101 | 99.9 | 106 | 98.8 | 93.7 | 102 | 101 | 97.6 | 105 | 98.1 | 104 | 99.5 | 101 | 101 | 105 | 96.5 | 94.9 | 99.3 | 106 | 102
10 | Cc1ccc(/C=C2/C(=O)C3(C)CCC2C3(C)C)cc1 (stereo not given) [3-(4-methylbenzylidene)camphor] | > 10 | > 10 | > 10 | > 10 | > 10 | 0 | 0 | 0 | 0 | 1.2 | 92.9 | 100 | 90 | 95.8 | 95.9 | 101 | 101 | 96.9 | 99.9 | 96.3 | 101 | 104 | 96.4 | 99.1 | 100 | 94.1 | 96 | 94.3 | 88.9 | 103 | 102 | 97.2 | 88.1 | 92.1 | 93.8
11 | O=C(c1cc(S(=O)(=O)Nc2ccccc2F)c(F)cc1Cl)N1CCN2CCC[C@@H]2C1 [ABT-639] | > 10 | > 10 | > 10 | > 10 | > 10 | 0 | 0 | 0 | 0 | 0 | 95.2 | 97.8 | 98.9 | 94.9 | 104 | 102 | 98.9 | 97.8 | 100 | 100 | 99.1 | 97.4 | 99 | 95.1 | 99.5 | 94.4 | 106 | 87.2 | 105 | 92.5 | 103 | 104 | 99.8 | 106 | 96.1
12 | Cc1ccc(S(=O)(=O)NC2c3ccccc3Oc3ccccc32)cc1 [AH-7614] | > 10 | > 10 | > 10 | > 10 | > 10 | 0 | 0 | 0 | 0 | 0 | 96.5 | 87.3 | 91.7 | 92.9 | 93.4 | 95.8 | 100 | 99.1 | 98 | 103 | 105 | 95.8 | 102 | 102 | 100 | 96.4 | 91.5 | 103 | 110 | 93 | 101 | 108 | 96.5 | 96.5 | 113
13 | Nc1ccn([C@@H]2O[C@@](CO)(CCl)[C@@H](O)[C@H]2F)c(=O)n1 [ALS-8112] | > 10 | > 10 | > 10 | > 10 | > 10 | 0 | 0 | 0 | 0.8 | 0 | 95.2 | 96.4 | 96.1 | 93.9 | 98.9 | 100 | 97.7 | 97 | 98.8 | 94.8 | 102 | 99.2 | 102 | 96.8 | 97.4 | 90.2 | 94.3 | 104 | 96.1 | 82.8 | 104 | 102 | 93.8 | 100 | 90.9
14 | CN1CCN(CCc2ccc(Cl)c(Cl)c2)CC1 [BD-1063] | > 10 | > 10 | > 10 | > 10 | > 10 | 0 | 0 | 0 | 0.4 | 0 | 98.6 | 100 | 95 | 91.3 | 92.2 | 105 | 101 | 105 | 95.1 | 93.9 | 94.2 | 100 | 93.9 | 100 | 95.3 | 108 | 102 | 103 | 92.4 | 87.7 | 91.3 | 96.2 | 102 | 96.9 | 101
